Data published in article PMC11362529, “Exploring the neuroprotective potential of Nrf2-pathway activators against annonacin toxicity” (Scientific Reports, 2024).

Key:
Assay type in all cases: cell-based, human
LUHMES cells [1] = test: Mitochondrial membrane potential (JC-1 probe); conditions: 24 h
Experimental: In PLO/FN-coated 24-well microplates, cells were simultaneously incubated with 20 nM of annonacin and the selected concentrations of Nrf2-pathway activators, in glucose-reduced medium, over the course of 24 h. After that, the medium was removed and cells were washed once with warm HBSS, followed by incubation with 5 µM JC-1 solution in HBSS, for 20 min at 37 °C. For the positive control, the mitochondrial oxidative phosphorylation uncoupler, CCCP, was used at a concentration of 50 µM. After the incubation period, cells were washed with HBSS, and fresh HBSS was added to keep the cells viable during live-image acquisition. Image acquisition was done on a fluorescence microscope Leica-DFC9000GTC (Leica, Frankfurt, Germany). Environmental conditions were kept steady at 37 °C with a 5% CO2 atmosphere during the entire acquisition time. Ten to fifteen images from different fields of view, dispersed across triplicates, were acquired with 200 × magnification (20 × objective, 10 × intermediate magnification), using the same image acquisition parameters for all conditions. The fluorescence of JC-1 monomers was captured on the green channel (λ Ex/Em = 475/519 nm) and the fluorescence of JC-1 aggregates was capture on the red channel (λ Ex/Em = 555/594 nm). Quantification of FI (fluorescence intensities) of JC-1 monomeric and aggregated forms was done using the ImageJ software (http://rsb.info.nih.gov/ij/, ImageJ bundled with 64-bit Java 8). Briefly, TIFF exported images were submitted to background subtraction using the rolling ball method with a radius of 50 pixels. Channel-specific thresholds were applied to all images to define the ROI (region of interest) and FI were measured as integrated density. Data were reported as the ratio between JC-1 aggregates and monomers, obtained by dividing the FI of the JC-1 aggregated form by the FI of the monomeric form.

8-OHdG = test: Oxidative DNA damage marker 8-OHdG immunofluorescence; conditions: 48 h; for 8-OHdG reactivity: protective concentration of compound + 20 nM annonacin
Experimental: For immunostaining, cells were seeded in differentiation medium, on 24-well microplates containing PLO/FN-coated 13 mm Ø coverslips, and treated for 48 h as previously described. On the readout day, the medium was removed and cells were fixed, permeabilized and blocked as before. Primary antibody dilutions were made in 1.5% NHS in PBS (Supplementary Table S1) and incubated overnight at 4 °C. On the following day, the coverslips were washed three times with PBS and incubated with host-specific fluorescence secondary antibodies (Supplementary Table S1), for 2 h at RT, protected from light. After another three washes with PBS, cell nuclei were stained with 1:5,000 DAPI (4’,6-diamidino-2-phenylindole, Thermo Fisher Scientific) in PBS, for 15 min at RT. The coverslips were mounted in mowiol and left to dry for 24 h before imaging. Image acquisition for FI quantification was done with a 200 × magnification (20 × objective, 10 × intermediate magnification), or 400x (40 × objective, 10 × intermediate magnification) in the case of pSC-35 and AT8 immunostaining, on a fluorescence microscope Leica-DFC9000GTC (Leica). In the case of phospho-tau AT8, Z-stacks consisting of 18 plane images with a step size of 1 μm were acquired. The image acquisition parameters were identical for all conditions. Quantification of 8-OHdG (8-hydroxyguanosine) FI and tau species was performed using the ImageJ software. Ten-to-fifteen images per condition across triplicates, from different view fields, were used for this purpose. Briefly, TIFF exported images were submitted to background subtraction using the rolling ball method with a radius of 50 pixels. For 8-OHdG analysis, a channel-specific threshold was applied to all images to define the ROI and FI was measured and normalized to the cell number, determined by the DAPI channel. The average value of the different view fields per experimental condition was taken and reported as fold change compared to the control (DMSO-treated) condition. For the analysis of phospho-tau AT270 and pan-tau reactivity, channel specific thresholds were applied to all images. The DAPI channel was used to define nuclei from viable cells, by selecting particles with a size above 15 µm^2 and a circularity of 0.3–1.0. […] These masks were used to quantify the number of somas expressing each of these tau species, as well as the respective FI. The number of AT270-positive somas was divided by the number of pan-tau-positive somas and expressed as a percentage. […] For quantification of pSC-35 and AT8 speckle number and FI, we used CellProfiler™ 4 (https://cellprofiler.org/, Broad Institute Inc., Cambridge, MA, USA) speckle counting pipeline. […]

LUHMES cells [2] = test: Neurite arborization analysis (Tuj-1 immunofluorescence); conditions: 48 h
Experimental: Cells were seeded in differentiation medium, onto 24-well microplates containing PLO/FN coated 13 mm Ø coverslips, and submitted to the described pharmacological treatments for 48 h. After this period, the medium was removed and cells were washed once with warm HBSS, and fixed with 4% PFA (paraformaldehyde) in PBS, for 20 min at RT (room temperature). After fixation, cells were washed twice with PBS and permeabilized with 0.1% Triton™ X-100 in PBS, for 20 min at RT. Next, cells were blocked in 1.5% NHS (normal horse serum) in PBS, for 1 h at RT, and incubated overnight with 1:1,000 Tuj-1 Alex 549-conjugated antibody (#801208, BioLegend, San Diego, CA, USA) in 1.5% NHS in PBS. After washing three times with PBS, cell nuclei were stained with 1:5,000 DAPI (4ʹ,6-diamidino-2-phenylindole, Thermo Fisher Scientific) in PBS, for 15 min at RT. The coverslips were mounted in mowiol, and left to dry for 24 h before imaging. Ten to fifteen images per condition, across triplicates, from different fields of view were taken on a fluorescence microscope Leica-DFC9000GTC (Leica) with 200 × magnification (20 × objective, 10 × intermediate magnification). Identical acquisition parameters were used for all images. Neurites density and arborization were quantified on TIFF exported images using the “neurite analyzer” plugin described before. The average value of the different view fields per experimental condition was taken and reported as fold change compared to the control (DMSO-treated) condition.

pThr-181 tau = test: AT270 (pThr-181 tau) immunofluorescence; conditions: 48 h
Experimental: (§1) For immunostaining, cells were seeded in differentiation medium, on 24-well microplates containing PLO/FN-coated 13 mm Ø coverslips, and treated for 48 h as previously described. On the readout day, the medium was removed and cells were fixed, permeabilized and blocked as before. Primary antibody dilutions were made in 1.5% NHS in PBS (Supplementary Table S1) and incubated overnight at 4 °C. On the following day, the coverslips were washed three times with PBS and incubated with host-specific fluorescence secondary antibodies (Supplementary Table S1), for 2 h at RT, protected from light. After another three washes with PBS, cell nuclei were stained with 1:5,000 DAPI (4’,6-diamidino-2-phenylindole, Thermo Fisher Scientific) in PBS, for 15 min at RT. The coverslips were mounted in mowiol and left to dry for 24 h before imaging. Image acquisition for FI quantification was done with a 200 × magnification (20 × objective, 10 × intermediate magnification), or 400x (40 × objective, 10 × intermediate magnification) in the case of pSC-35 and AT8 immunostaining, on a fluorescence microscope Leica-DFC9000GTC (Leica). In the case of phospho-tau AT8, Z-stacks consisting of 18 plane images with a step size of 1 μm were acquired. The image acquisition parameters were identical for all conditions. Quantification of 8-OHdG (8-hydroxyguanosine) FI and tau species was performed using the ImageJ software. Ten-to-fifteen images per condition across triplicates, from different view fields, were used for this purpose. Briefly, TIFF exported images were submitted to background subtraction using the rolling ball method with a radius of 50 pixels. For 8-OHdG analysis, a channel-specific threshold was applied to all images to define the ROI and FI was measured and normalized to the cell number, determined by the DAPI channel. The average value of the different view fields per experimental condition was taken and reported as fold change compared to the control (DMSO-treated) condition. For the analysis of phospho-tau AT270 and pan-tau reactivity, channel specific thresholds were applied to all images. The DAPI channel was used to define nuclei from viable cells, by selecting particles with a size above 15 µm^2 and a circularity of 0.3–1.0. The obtained mask was submitted to “close” and “fill holes” processes to smooth the objects and fill in small holes, followed by nine “dilations” and one “watershed” to obtain a ROI covering exclusively the soma of viable cells. The obtained mask was combined with threshold images of phospho-tau AT270 and pan-tau in order to define the respective ROI of each tau species. These masks were used to quantify the number of somas expressing each of these tau species, as well as the respective FI. The number of AT270-positive somas was divided by the number of pan-tau-positive somas and expressed as a percentage. The AT270 FI was normalized to the pan-tau FI and the ratio presented as fold change relative to the control (DMSO-treated) condition. For quantification of pSC-35 and AT8 speckle number and FI, we used CellProfiler™ 4 (https://cellprofiler.org/, Broad Institute Inc., Cambridge, MA, USA) speckle counting pipeline. Twenty-to-thirty images per condition across triplicates were used for this purpose. ImageJ BIOP JACoP plugin was used for estimating co-localization of AT8 with DAPI-stained nuclei. Data were reported as fold change compared to the control (DMSO-treated) condition, or as Pearsonʹs coefficient values in case the of AT8 co-localization data.

[3] = tested on: pSer-202 and pThr-205 tau; test: AT8 (pSer-202/Thr-205 tau) immunofluorescence; conditions: 48 h
Experimental: as §1

[4] = protective concentration of compound + 20 nM annonacin
[5] = protective concentration of compound + 20 nM annonacin, vs annonacin
[6] = 20 nM annonacin alone, vs control
[7] = protective concentration of compound + 20 nM annonacin, compared to annonacin

| SMILES | mitochondrial membrane potential (JC-1 aggregates/monomers ratio) (LUHMES cells [1]; [4]) | 8-OHdG reactivity (8-OHdG) | number of quadruple points (LUHMES cells [2]; [4]) | total branch length (LUHMES cells [2]; [4]) | pThr-181 tau (AT270) normalized to pan-tau, neuritic and somatic compartment (pThr-181 tau; [5]) | mitochondrial membrane potential (JC-1 aggregates/monomers ratio) (LUHMES cells [1]; 20 nM annonacin alone, glucose-reduced medium) | increase of 8-OHdG reactivity (8-OHdG; 20 nM annonacin alone) | number of quadruple points (LUHMES cells [2]; 20 nM annonacin alone) | total branch length (LUHMES cells [2]; 20 nM annonacin alone) | AT270-positive somas (pThr-181 tau; 20 nM annonacin alone) | AT270 reactivity normalized to pan-tau, in the soma area (pThr-181 tau; 20 nM annonacin alone) | pThr-181 tau (AT270) normalized to pan-tau, neuritic and somatic compartment (pThr-181 tau; 20 nM annonacin alone) | Pearson´s coefficient between AT8 reactivity and DAPI-stained nuclei (r) ([3]; 20 nM annonacin alone) | AT8 fluorescence intensity [3, 6] | number of AT8 speckles per nucleus [3, 6] | AT270-positive somas (pThr-181 tau; 15 μM ezetimibe + 20 nM annonacin) | Pearson´s coefficient between AT8 reactivity and DAPI-stained nuclei (r) [3, 4] | AT8 fluorescence intensity [3, 7] | number of AT8 speckles [3, 7] |
| --- | --- | --- | --- | --- | --- | --- | --- | --- | --- | --- | --- | --- | --- | --- | --- | --- | --- | --- | --- |
| Cn1c(Nc2nc3ccc(C(F)(F)F)cc3s2)nc2cc(C(=O)NCCOCCO)ccc21 [HPP-D] | rescue the ΔψM from annonacin-induced depolarization | small but significant reduction of 8-OHdG reactivity | approximately 0.50 fold over control | significantly denser neural arborizations compared with the annonacin condition | attenuated annonacin-induced tau hyperphosphorylation | – | – | – | – | – | – | – | – | – | – | – | – | – | – |
| CCCCCCCCCCCC[C@@H](O)[C@H]1CC[C@H]([C@H](O)CCCC[C@H](O)CCCCC[C@@H](O)CC2=CC(C)OC2=O)O1 (some centres unmarked) [annonacin] | – | – | – | – | – | significant mitochondrial depolarization | 1.5 fold over control | 0.31 fold over control | 0.44 fold over control | more than 90% | 1.9 ratio | 3.4 ratio | 0.58 | statistically higher AT8 fluorescence intensity | non-significant propensity to increase the number of AT8 speckles per nucleus | – | – | – | – |
| O=C1[C@H](CC[C@H](O)c2ccc(F)cc2)[C@@H](c2ccc(O)cc2)N1c1ccc(F)cc1 [ezetimibe] | aggravated mitochondrial depolarization | levels of oxidative DNA damage comparable to healthy control cells | 0.71 fold over control | significantly denser neural arborizations compared with the annonacin condition | attenuated annonacin-induced tau hyperphosphorylation | – | – | – | – | – | – | – | – | – | – | 75% | 0.45 | significant reduction | significant reduction of the number of AT8 speckles |
| C=CC(C)(C)c1cc(/C=C/C(=O)c2ccc(O)cc2)c(OC)cc1O [licochalcone A] | aggravated mitochondrial depolarization | levels of oxidative DNA damage comparable to healthy control cells | 0.81 fold over control | significantly denser neural arborizations compared with the annonacin condition | attenuated annonacin-induced tau hyperphosphorylation | – | – | – | – | – | – | – | – | – | – | – | 0.38 | significant reduction | significant reduction of the number of AT8 speckles |
